Measurements as given in patent US20100184699A1, “Peptide Derived From Prostate-Related Protein As Cancer Vaccine Candidate For Prostate Cancer Patient Who Is Positive For Hla-A3 Super-Type Allele Molecule” (priority 2005, published 2010).

Test system: peptide-specific IgG in plasma of prostate cancer patients and healthy donors
Assay: Detection of peptide-specific IgG in plasma by ELISA
Type: binding, human
Conditions: for IgG reactive to peptide in plasma: 1:100-diluted plasma
[1] = Prostate cancer patient 12, A11
[2] = Prostate cancer patient 16, A33
[3] = Prostate cancer patient 20, A33

Substance	IgG reactive to peptide in plasma, Total (positive/tested) (Healthy donors)	IgG reactive to peptide in plasma (Prostate cancer patient 9, A11)	IgG reactive to peptide in plasma [3]	IgG reactive to peptide in plasma, Total (positive/tested) (Prostate cancer patients)	further results
HIHSTNEVTR (PSMA 345-354) [PSMA-derived peptide]	0/9	+ (IgG reactive to a corresponding peptide was judged to be positive when a difference of the optical density (OD) in a 1:100-diluted plasma was more than 100)	+ (IgG reactive to a corresponding peptide was judged to be positive when a difference of the optical density (OD) in a 1:100-diluted plasma was more than 100)	11/20	IgG reactive to peptide in plasma (Prostate cancer patient 2, A31): + (IgG reactive to a corresponding peptide was judged to be positive when a difference of the optical density (OD) in a 1:100-diluted plasma was more than 100); IgG reactive to peptide in plasma (Prostate cancer patient 4, A31): + (IgG reactive to a corresponding peptide was judged to be positive when a difference of the optical density (OD) in a 1:100-diluted plasma was more than 100); IgG reactive to peptide in plasma (Prostate cancer patient 5, A31): + (IgG reactive to a corresponding peptide was judged to be positive when a difference of the optical density (OD) in a 1:100-diluted plasma was more than 100); IgG reactive to peptide in plasma (Prostate cancer patient 6, A31): + (IgG reactive to a corresponding peptide was judged to be positive when a difference of the optical density (OD) in a 1:100-diluted plasma was more than 100); IgG reactive to peptide in plasma [1]: + (IgG reactive to a corresponding peptide was judged to be positive when a difference of the optical density (OD) in a 1:100-diluted plasma was more than 100); IgG reactive to peptide in plasma (Prostate cancer patient 13, A11): + (IgG reactive to a corresponding peptide was judged to be positive when a difference of the optical density (OD) in a 1:100-diluted plasma was more than 100); IgG reactive to peptide in plasma [2]: + (IgG reactive to a corresponding peptide was judged to be positive when a difference of the optical density (OD) in a 1:100-diluted plasma was more than 100); IgG reactive to peptide in plasma (Prostate cancer patient 17, A33): + (IgG reactive to a corresponding peptide was judged to be positive when a difference of the optical density (OD) in a 1:100-diluted plasma was more than 100); IgG reactive to peptide in plasma (Prostate cancer patient 19, A33): + (IgG reactive to a corresponding peptide was judged to be positive when a difference of the optical density (OD) in a 1:100-diluted plasma was more than 100)
HYELGEYIR (PAP 78-86) [PAP-derived peptide]	1/9			1/20	IgG reactive to peptide in plasma (Healthy donor 3, A31): + (IgG reactive to a corresponding peptide was judged to be positive when a difference of the optical density (OD) in a 1:100-diluted plasma was more than 100); IgG reactive to peptide in plasma (Prostate cancer patient 14, A33): + (IgG reactive to a corresponding peptide was judged to be positive when a difference of the optical density (OD) in a 1:100-diluted plasma was more than 100)
LYLPFRNCPR (PAP 154-163) [PAP-derived peptide]	0/9	+ (IgG reactive to a corresponding peptide was judged to be positive when a difference of the optical density (OD) in a 1:100-diluted plasma was more than 100)		3/20	IgG reactive to peptide in plasma (Prostate cancer patient 10, A11): + (IgG reactive to a corresponding peptide was judged to be positive when a difference of the optical density (OD) in a 1:100-diluted plasma was more than 100); IgG reactive to peptide in plasma [2]: + (IgG reactive to a corresponding peptide was judged to be positive when a difference of the optical density (OD) in a 1:100-diluted plasma was more than 100)
LYTKVVHYR (PSA 242-250) [PSA-derived peptide]	0/9			0/20	
PAP 18-28 (FLFLLFFWLDR; UniProt P15309 18-28, looked up, fragment)	1/9			0/20	IgG reactive to peptide in plasma (Healthy donor 12, A31): + (IgG reactive to a corresponding peptide was judged to be positive when a difference of the optical density (OD) in a 1:100-diluted plasma was more than 100)
PSMA 247-265 (NLPGGGVQRGNILNLNGAG; UniProt Q04609 247-265, looked up, fragment)	0/9	+ (IgG reactive to a corresponding peptide was judged to be positive when a difference of the optical density (OD) in a 1:100-diluted plasma was more than 100)	+ (IgG reactive to a corresponding peptide was judged to be positive when a difference of the optical density (OD) in a 1:100-diluted plasma was more than 100)	6/20	IgG reactive to peptide in plasma (Prostate cancer patient 6, A31): + (IgG reactive to a corresponding peptide was judged to be positive when a difference of the optical density (OD) in a 1:100-diluted plasma was more than 100); IgG reactive to peptide in plasma (Prostate cancer patient 8, A11): + (IgG reactive to a corresponding peptide was judged to be positive when a difference of the optical density (OD) in a 1:100-diluted plasma was more than 100); IgG reactive to peptide in plasma [1]: + (IgG reactive to a corresponding peptide was judged to be positive when a difference of the optical density (OD) in a 1:100-diluted plasma was more than 100)
PSMA 370-378 (RYVILGGHR; PSMA 370-378)	0/9		+ (IgG reactive to a corresponding peptide was judged to be positive when a difference of the optical density (OD) in a 1:100-diluted plasma was more than 100)	2/20	IgG reactive to peptide in plasma (Prostate cancer patient 5, A31): + (IgG reactive to a corresponding peptide was judged to be positive when a difference of the optical density (OD) in a 1:100-diluted plasma was more than 100)
